According to patent US20110104159A1, “COMPOSITIONS AND METHODS FOR TREATING, CONTROLLING, REDUCING, AMELIORATING, OR PREVENTING ALLERGY” (priority 2006, published 2011):
Where two headings read alike, the source gives them in different places.

What was measured:
[1] = target: human glucocorticoid receptor (Homo sapiens, UniProt P04150); conditions: Schacke et al. [26]; cited from earlier work
[2] = tested on: human eosinophils; assay: Cytokine-sustained (GM-CSF or IL-5) eosinophil survival; type: cell-based; conditions: for IC50: Homo sapiens, Eosinophil, 48 h, 0.1% FBS
[3] = conditions similar to the in vitro models used [28]; cited from earlier work
[4] = tested on: primary human conjunctival epithelial cells (HConEpiC); assay: IL-4 and TNF-α-induced cytokine release in HConEpiC (Luminex); type: cell-based; conditions: 24 h
Description: Primary human conjunctival epithelial cells (HConEpiC) were seeded in two 24-well plates in EpiLife medium+1% Human Corneal Growth Supplement (HCGS; contains bovine pituitary extract, bovine insulin, hydrocortisone, bovine transferrin and mouse epidermal growth factor) at 2×10^4 cells/well. When the cells were confluent (4-5 days after seeding), they were incubated in EpiLife GF medium without glucocorticoids (EpiLife basic medium supplemented with 50 μg/ml bovine pituitary extract, 5 μg/ml bovine insulin and 5 ng/ml mouse epidermal growth factor) for 18 h. […] Culture medium was collected. Cytokine analysis was performed on the culture medium using 2 separate cytokine/chemokine Luminex kits (Kit 1: G-CSF, GM-CSF, IL-6, IL-8, IP-10, MCP-1, RANTES; Kit 2: eotaxin-3, CTACK). ICAM-1 expression was determined in cell lysates using a Luminex kit.
Median fluorescence intensity (MFI) was used to obtain the concentration of each cytokine and ICAM-1 in pg/ml based on the standard curve of each cytokine assayed by Luminex using the StatLIA software. ICAM-1 expression was expressed as pg/mg protein. All data were expressed as mean±SEM. Statistical analysis was performed using a two-way ANOVA-Contrast test with Factor 1 being drug and Factor 2 being dose (JMP 8 software, SAS Institute, Cary, N.C.). P<0.05 was considered statistically significant. Data were analyzed either directly or after Box-Cox transformations (9, 10).

Sequence of human glucocorticoid receptor (P04150 whole entry): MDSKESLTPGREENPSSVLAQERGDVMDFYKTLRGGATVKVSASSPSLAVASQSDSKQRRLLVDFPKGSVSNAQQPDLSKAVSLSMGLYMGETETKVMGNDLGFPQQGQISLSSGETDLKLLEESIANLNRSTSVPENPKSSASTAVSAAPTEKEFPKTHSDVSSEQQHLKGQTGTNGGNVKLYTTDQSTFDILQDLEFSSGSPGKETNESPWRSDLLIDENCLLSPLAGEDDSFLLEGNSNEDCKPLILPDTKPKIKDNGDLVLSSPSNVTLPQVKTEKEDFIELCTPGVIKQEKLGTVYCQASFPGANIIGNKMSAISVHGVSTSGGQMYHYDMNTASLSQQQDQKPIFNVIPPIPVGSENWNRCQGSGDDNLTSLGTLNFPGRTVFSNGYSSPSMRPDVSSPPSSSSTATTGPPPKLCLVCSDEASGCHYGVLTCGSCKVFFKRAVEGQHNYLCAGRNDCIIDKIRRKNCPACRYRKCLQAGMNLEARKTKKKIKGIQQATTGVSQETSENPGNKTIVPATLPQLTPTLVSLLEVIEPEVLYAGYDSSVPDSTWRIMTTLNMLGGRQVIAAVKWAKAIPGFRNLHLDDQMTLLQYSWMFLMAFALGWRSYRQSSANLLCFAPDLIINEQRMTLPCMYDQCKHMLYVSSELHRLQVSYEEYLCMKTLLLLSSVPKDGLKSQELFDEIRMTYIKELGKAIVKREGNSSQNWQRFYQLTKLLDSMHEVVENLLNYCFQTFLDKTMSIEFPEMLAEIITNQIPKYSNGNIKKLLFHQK

In the case of `Cc1ccc2c(NC[C@](O)(CC(C)(C)c3cc(F)cc4c3OCC4)C(F)(F)F)cccc2n1` [BOL-303242-X, (R)-1,1,1-Trifluoro-4-(5-fluoro-2,3-dihydrobenzofuran-7-yl)-4-methyl-2-{[(2-methyl-5-quinolyl)amino]methyl}pentan-2-ol], the “Binding to the human glucocorticoid receptor” value [1] is listed as “high affinity and selectivity”, the “Reversal of cytokine-sustained survival at higher cytokine concentrations” value ([2]; GM-CSF 200 pM or IL-5 100 pM, data not shown) is listed as “not, in fact, able to reverse cytokine-sustained survival” and the IC50 ([2]; GM-CSF 70 pM, read-out: IC50, inhibition of GM-CSF-induced eosinophil survival) is listed as 158 nM. The IC50 ([2]; IL-5 30 pM, read-out: IC50, inhibition of interleukin-5-induced eosinophil survival) was 399 nM, the “Stability of the compound” value [3] was “stable” and the “Eotaxin-3 level induced by IL-4 plus TNF-α” value ([4]; 100 nM) was “significant elevation of eotaxin-3”. The “Eotaxin-3 level induced by IL-4 plus TNF-α” value ([4]; 10, 30, 300 and 1000 nM) was “no effect”, the “IL-8 level induced by IL-4 plus TNF-α” value ([4]; 10-1000 nM) was “no effect” and the “IP-10 level induced by IL-4 plus TNF-α” value ([4]; 30, 100, 300 and 1000 nM) was “significantly inhibited”. For the same molecule, the “IL-6 level induced by IL-4 plus TNF-α” value ([4]; 300 and 1000 nM) was “significantly reduced”, the “CTACK level induced by IL-4 plus TNF-α” value ([4]; all doses 10-1000 nM) was “significant reduction” and the “G-CSF level induced by IL-4 plus TNF-α” value ([4]; all doses 10-1000 nM) was “significantly elevated”. The “GM-CSF level induced by IL-4 plus TNF-α” value ([4]; all doses 10-1000 nM) was “significant reduction”, the “MCP-1 level induced by IL-4 plus TNF-α” value ([4]; all doses 10-1000 nM) was “significant reduction” and the “RANTES level induced by IL-4 plus TNF-α” value ([4]; all doses 10-1000 nM) was “significant reduction”.
